≈ marks a conversion by molar mass, not a printed value.
Key:
[1] = BL-1249 solubility limit in recording solution; format: physicochemical; details: standard ND96 recording solution
Experimental: BL-1249 activates K2P2.1(TREK-1)[18],[40] and K2P10.1(TREK-2),[7] but its effects on other K2P channels have not been characterized. […] In order to test if the original 10 μM assay had missed BL-1249 effects in other K2P channels, we tested concentrations of BL-1249 up to the solubility limit (∼80 μM) against the other K2P subfamily representatives.

K2P2.1(TREK-1) = molecular target: T1, K2P2.1(TREK-1) (Mus musculus, UniProt P97438); assay: Inside-out patch clamp of K2P2.1(TREK-1) in HEK293 cells; format: cell-based; design: expressed in transfected cells; details: HEK293 inside-out patches, 150 mM K+[out]/150 mM Rb+[in], 1 μM
T1 sequence (P97438 1-411 isoform P97438-2): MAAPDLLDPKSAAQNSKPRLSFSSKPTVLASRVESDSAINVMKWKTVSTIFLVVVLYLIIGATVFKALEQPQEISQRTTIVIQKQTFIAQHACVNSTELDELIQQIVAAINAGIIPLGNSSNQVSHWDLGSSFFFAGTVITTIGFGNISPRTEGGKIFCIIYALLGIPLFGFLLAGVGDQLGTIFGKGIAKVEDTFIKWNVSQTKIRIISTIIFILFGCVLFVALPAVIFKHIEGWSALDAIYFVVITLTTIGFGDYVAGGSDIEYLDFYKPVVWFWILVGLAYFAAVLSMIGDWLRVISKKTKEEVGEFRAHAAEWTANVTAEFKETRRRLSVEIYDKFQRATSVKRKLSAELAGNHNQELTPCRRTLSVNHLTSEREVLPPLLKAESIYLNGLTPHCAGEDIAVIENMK
Excerpt: Diverse types of physical and chemical stimuli activate K2P2.1(TREK-1) by stabilizing the C-type gate and switching the channel into a “leak” mode that is characterized by a loss of outward rectification of the potassium current.[6],[8] Accordingly, we used inside-out patch clamp experiments of K2P2.1(TREK-1) expressed in HEK293 cells to test whether BL-1249 acts on the C-type gate. […] Together with previous single point concentration studies showing the insensitivity of K2P2.1(TREK-1) W275S in mammalian cells,[40] our data provide definitive evidence that BL-1249 activates K2P2.1(TREK-1) by stimulating the C-type gate. Thus, this compound fits the mechanistic paradigm shared by varied types of activators including mechanical stretch, pH, lipids, and small molecules.[6],[8]
Mouse K2P2.1 was expressed from a previously described pIRES2-EGFP vector in HEK293T cells (ATCC CRL-1573). Cells at 70% confluence were transfected (in 35 mm diameter wells) using LipofectAMINE 2000 (Invitrogen) for 6 h and plated onto coverslips coated with Matrigel (BD Biosciences).
Voltage-dependent activation of K2P2.1 was recorded on excised patches in inside-out configuration (50 kHz sampling) in the absence and presence of 1 μM BL-1249. Pipette solution contained the following: 150 mM KCl, 3.6 mM CaCl2, 10 mM HEPES (pH 7.4 with KOH). […] Data were analyzed using Clampfit 9 and Origin 7.

K2P3.1(TASK-1) = molecular target: T2, K2P3.1(TASK-1) (Mus musculus, UniProt O35111); assay: TEVC of K2P3.1(TASK-1) in Xenopus oocytes; format: cell-based; details: concentrations up to the solubility limit (∼80 μM)
T2 construct: expressed in transfected cells; host or cells: Xenopus laevis oocytes injected with mRNA made from pGEMHE/pMO
T2 sequence (O35111 whole entry): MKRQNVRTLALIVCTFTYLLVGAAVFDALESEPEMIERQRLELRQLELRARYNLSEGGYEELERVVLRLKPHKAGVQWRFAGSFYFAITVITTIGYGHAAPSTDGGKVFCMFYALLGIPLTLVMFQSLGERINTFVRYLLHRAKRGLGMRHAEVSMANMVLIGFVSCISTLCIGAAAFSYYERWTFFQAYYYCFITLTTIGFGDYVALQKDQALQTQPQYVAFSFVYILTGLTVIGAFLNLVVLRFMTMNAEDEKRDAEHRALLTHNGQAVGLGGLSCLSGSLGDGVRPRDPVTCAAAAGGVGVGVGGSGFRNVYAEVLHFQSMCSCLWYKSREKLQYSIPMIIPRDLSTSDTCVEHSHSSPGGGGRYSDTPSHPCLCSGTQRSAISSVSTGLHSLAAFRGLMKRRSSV
Experimental: BL-1249 activates K2P2.1(TREK-1)[18],[40] and K2P10.1(TREK-2),[7] but its effects on other K2P channels have not been characterized. […] In order to test if the original 10 μM assay had missed BL-1249 effects in other K2P channels, we tested concentrations of BL-1249 up to the solubility limit (∼80 μM) against the other K2P subfamily representatives. […]
Xenopus laevis oocytes were harvested in accordance with UCSF IACUC protocol AN129690 and digested in calcium-free ND-96 (96 mM NaCl, 2 mM KCl, 3.8 mM MgCl2) immediately following harvest, as previously described.[6],[10] […] Defolliculated stage V–VI oocytes were injected with 0.2–6.0 ng of mRNA in 50 nL, and currents were recorded 24–48 h after injection. mRNA was synthesized from plasmid DNA using mMessage mMachine Kit (T7 promoter, Ambion, Life Technologies) and purified using RNEasy Kit (Qiagen). […] Once stabilized basal currents were recorded, compounds were perfused at various concentrations in standard ND96 and currents were allowed to increase to stabilization before recording final current. Fold activation upon compound application is expressed as I/I0 (0 mV), derived from the current at 0 mV in the presence of compound divided by the basal current at 0 mV in standard ND96 without compound. Data were analyzed and plotted using Graphpad Prism Version 5 (GraphPad Software, San Diego California USA, www.graphpad.com). […]

## c1ccc(-c2nnn[nH]2)c(Nc2cccc3c2CCCC3)c1 [BL-1249, (5,6,7,8-tetrahydro-naphthalen-1-yl)-[2-(1H-tetrazol-5-yl)-phenyl]-amine]
[1]
  solubility: ~80 µM (≈ 23.3 µg/mL)
K2P2.1(TREK-1)
  effect on outward rectification (C-type gate): clear loss of rectification
K2P3.1(TASK-1)
  activation of K2P3.1(TASK-1): failed to find evidence for activation
